Data taken from patent US20200370102A1, “BIOMARKER INDICATING RESPONSE TO POZIOTINIB THERAPY FOR CANCER” (HANMI PHARM. CO., LTD., priority 2017, published 2020).

What was measured:
[1] = tested on: HER2-positive metastatic breast cancer; assay: open-label, multicenter study of poziotinib monotherapy in breast cancer patients, with genotype (NGS) analysis; assay type: in vivo, human
Experimental: Poziotinib is a pan-HER inhibitor small molecule breast cancer therapeutic agent under clinical development. […] Recently, through an open-label, multicenter, two-phase study of poziotinib monotherapy, it was evaluated whether poziotinib was an option for breast cancer patients with HER2-positive metastatic breast cancer who twice or more experienced the failure of 2 HER2 target treatments. The genetic profile of HER2-positive metastatic breast cancer was evaluated, and the potential biomarkers of poziotinib for HER2-positive metastatic breast cancer (MBC) were investigated.
The experimental method is as follows. All participants with MBC were diagnosed with HER2-positive metastatic breast cancer according to the American Society of Clinical Oncology/College of-American Pathologist Her2 guideline. Fresh tissue samples or FFPE samples were obtained from these patients and used to extract DNA and RNA for next generation sequencing (NGS).
DNA and RNA were extracted from the samples and NGS was performed thereon. Targeted deep sequencing was performed by using a customized 381 cancer gene panel (CancerSCAN™, Samsung Hospital, Inc.) and the correlation among sequencing data, immunohistochemistry, and clinical outcome was analyzed.
An effective amount of poziotinib was administered to the breast cancer patients. The prognosis of the patients was observed. Prognosis was classified into partial remission (PR), stable disease (SD), and progressive disease (PD). For each patient, progressive free survival (PFS) was also identified.
From April 2015 to February 2016, 106 patients enrolled for clinical trials. Biomarker data were available for 75 of these patients.

[2] = tested on: EGFR family including Her1, Her2, and Her4; conditions: cited from earlier work
[3] = tested on: cancer cells having overexpression of Her1 or Her2 or activated mutations; conditions: in vitro, various carcinomas; cited from earlier work
[4] = tested on: lung cancer cells resistant to gefitinib or erlotinib; conditions: cited from earlier work
transplanted tumor cells = conditions: xenotransplantation animal model; cited from earlier work
[5] = among the 75 patients with biomarker data

C=CC(=O)N1CCC(Oc2cc3c(Nc4ccc(Cl)c(Cl)c4F)ncnc3cc2OC)CC1 [Poziotinib, 1-[4-[4-(3,4-dichloro-2-fluoroanilino)-7-methoxyquinazolin-6-yl]oxypiperidin-1-yl]prop-2-en-1-one]
prognosis after poziotinib by genotype ([1]; BARD1 gene mutation present (mutation number=9)): poor prognosis | prognosis after poziotinib by genotype ([1]; CDK12 copy number amplification (42 subjects)): good prognosis | prognosis after poziotinib by genotype ([1]; ERBB3 gene mutation present (mutation number=10)): poor prognosis | prognosis after poziotinib by genotype ([1]; NOTCH gene mutation present (mutation number=13)): good prognosis | prognosis after poziotinib by genotype ([1]; PIK3CA gene mutation present (mutation number=34)): poor prognosis | prognosis after poziotinib by genotype ([1]; SETBP1 gene mutation present (mutation number=13)): poor prognosis | prognosis after poziotinib by genotype ([1]; SH2B3 gene mutation present (mutation number=6)): good prognosis | number of patients with partial remission (PR) [1, 5]: 14 | number of patients with progressive disease (PD) [1, 5]: 20 | prognosis after poziotinib by genotype ([1]; copy number amplification of the ERBB2 gene): good prognosis | prognosis after poziotinib by genotype ([1]; copy number deletion of the BRCA1 gene): bad prognosis | prognosis after poziotinib by genotype ([1]; copy number deletion of the STAT3 gene): bad prognosis | prognosis after poziotinib by genotype ([1]; deletion or amplification of the FGFR3 gene (copy number variations=5)): bad prognosis | prognosis of patients with ERBB2 gene or upstream mutations ([1]; patients 1 to 10 of the 13 patients with ERBB2 mutations, FIG. 13): partial remission and stable disease | inhibition of the EGFR family [2]: selectively and irreversibly inhibits | growth of cancer cells [3]: inhibits the growth of cancer cells | growth of lung cancer cells [4]: effectively inhibits the growth | tumor growth (transplanted tumor cells): effectively blocks tumor growth
